Experimental data reported in patent US20220117938A1, “COMBINATON THERAPY WITH A DON PRODRUG AND AN IMMUNE CHECKPOINT INHIBITOR” (DRACEN PHARMACEUTICALS, INC., priority 2019, published 2022).

Experiments:
Assay type in all cases: in vivo, mice
[1] = test system: CT26.WT tumors; test: Anti-tumor efficacy of Compound 1 in the CT26.WT model: schedule comparison (Example 5); settings: for Mean Tumor Vol / TGI: Day 14; for Mean Tumor Vol / TGI / Cures / ILS: sc
Procedure: Female BALB/c mice were inoculated subcutaneously at right flank with CT26.WT cells for tumor development. Treatment started on day 6 after tumor inoculation when the tumor size reached 40-79 mm^3 (average tumor size 57 mm^3). Each group consisted of 8 tumor-bearing mice. The tumor sizes were measured three times per week during the treatment. The entire study was terminated on D57 after start of the treatment. Otherwise, the experimental methods and procedures are similar to those described in EXAMPLE 2B.

[2] = test system: H22 tumors; test: Anti-tumor efficacy of Compound 1 with and without anti-PD-L1 in the H22 subcutaneous syngeneic model (Example 6)
Procedure: Female BALB/c mice were inoculated subcutaneously at right flank with H22 tumor cells for tumor development. Treatment began on Day 6 post tumor inoculation and the mice were treated for 21 days. Tumor and weight measurements were continued for the duration of the study, and the survival was recorded until Day 106. The results are summarized Table 6-1, Table 6-2, and FIG. 23. In all cases the dosing volume was 10 ml/kg. PD-L1 antibody was obtained from Bioxcell.

[3] = test system: HCT116 tumors; test: Anti-tumor efficacy of Compound 1 in the HCT116 xenograft model (Example 12)
Procedure: Female BALB/c nude mice were inoculated subcutaneously in the right flank with HCT116 cells for tumor development. Nine days after tumor inoculation, mice with tumor sizes ranging from 90-260 mm^3 (average tumor size 155 mm^3) were selected and assigned into groups using stratified randomization with 8 mice per group based upon their tumor volumes. The treatments were started from the day of randomization (defined as D0), Group 1 was treated with Vehicle control, 10 ml/kg, IP, bid×21; Group 4 was treated with Compound 1, 1.4 mg/kg, SC, 5d ON, 2 d OFF×3 cycles; and Group 5 was treated with Compound 1, 3.3 mg/kg, IV, tiw, (Thu, Sat, Mon)×3 cycles. The tumor sizes were measured two times per week during the treatment. The entire study was terminated on D18 after start of the treatment. All treatments were well-tolerated without any adverse effects or significant body weight loss.

[4] = Group 2: 1.4 mpk 5-days ON 2-days OFF x4 cycles
[5] = Group 3: 1.4 mpk 5-days ON 2-days OFF x2 cycles followed by 3-days ON (Mon-Wed) 4-days OFF x2 cycles
[6] = Group 4: 1.4 mpk 5-days ON 2-days OFF x2 cycles followed by 3-days ON (Mon, Wed, Fri) 4-days OFF x2 cycles
[7] = Group 5: 2.33 mpk 3-days ON (Mon-Wed) 4-days OFF x4 cycles
[8] = Group 6: 2.33 mpk 3-days ON (Mon, Wed, Fri) 4-days OFF x4 cycles
[9] = Group 7: 0.5 mpk 5-days ON 2-days OFF x4 cycles
[10] = Group 8: 0.83 mpk 3-days ON (Mon-Wed) 4-days OFF x4 cycles
[11] = Group 9: 0.83 mpk 3-days ON (Mon, Wed, Fri) 4-days OFF x4 cycles
[12] = 0.7 mg/kg 5-day ON 2-day OFF x 3 cycles
[13] = 1.4 mg/kg 5-day ON 2-day OFF x 3 cycles
[14] = Day 26, 0.7 mg/kg 5-day ON 2-day OFF x 3 cycles
[15] = Day 26, 1.4 mg/kg 5-day ON 2-day OFF x 3 cycles
[16] = Group 4, 1.4 mg/kg SC 5 d ON 2 d OFF x3 cycles
[17] = Group 4, 1.4 mg/kg SC 5 d ON 2 d OFF x3 cycles, day 11
[18] = Group 5, 3.3 mg/kg IV tiw x3 cycles
[19] = Group 5, 3.3 mg/kg IV tiw x3 cycles, day 11

SMILES: CC(=O)N[C@@H](Cc1c[nH]c2ccccc12)C(=O)N[C@@H](CCC(=O)C=[N+]=[N-])C(=O)OC(C)C [Compound 1, Isopropyl (S)-2-((S)-2-acetamido-3-(1H-indol-3-yl)propanamido)-6-diazo-5-oxohexanoate]
- ILS (maximum median survival) ([1]; 1.4 mg/kg 5-day ON 2-day OFF): 106%
- Long term cure ([1]; 1.4 mg/kg 5-day ON 2-day OFF, animals cured/animals in group): 1/8
- Tumor growth inhibition, schedule switch compared to 1.4 mg/kg 5-day ON 2-day OFF×4 cycles ([1]; 1.4 mg/kg, switching from 5-day ON 2-day OFF to 3-day ON 4-day OFF on Day 14): reduced tumor growth inhibition
- Efficacy and survival benefit, Mon-Wed compared with Mon, Wed, Fri dosing ([1]; 3-day ON 4-day OFF schedules, equivalent total dose per cycle): equivalent efficacy and survival benefit
- Tumor growth inhibition and survival benefit compared to 3-day ON 4-day OFF schedules ([1]; 5-day ON 2-day OFF schedule, equivalent total dose per cycle, 4 weeks): superior tumor growth inhibition and survival benefit
- Mean Tumor Vol [1, 4]: 163 ± 25 mm^3
- TGI [1, 4]: 92%
- Mean Tumor Vol [1, 5]: 155 ± 27 mm^3
- TGI [1, 5]: 93%
- Mean Tumor Vol [1, 6]: 164 ± 12 mm^3
- TGI [1, 6]: 92%
- Mean Tumor Vol [1, 7]: 169 ± 32 mm^3
- TGI [1, 7]: 92%
- Mean Tumor Vol [1, 8]: 240 ± 45 mm^3
- TGI [1, 8]: 87%
- Mean Tumor Vol [1, 9]: 302 ± 41 mm^3
- TGI [1, 9]: 82%
- Mean Tumor Vol [1, 10]: 484 ± 87 mm^3
- TGI [1, 10]: 69%
- Mean Tumor Vol [1, 11]: 488 ± 74 mm^3
- TGI [1, 11]: 68%
- Cures [1, 4]: 12.5%
- ILS [1, 4]: 106%
- Cures [1, 5]: 0%
- ILS [1, 5]: 67%
- Cures [1, 6]: 12.5%
- ILS [1, 6]: 94%
- Cures [1, 7]: 0%
- ILS [1, 7]: 86%
- Cures [1, 8]: 0%
- ILS [1, 8]: 94%
- Cures [1, 9]: 0%
- ILS [1, 9]: 67%
- Cures [1, 10]: 0%
- ILS [1, 10]: 67%
- Cures [1, 11]: 0%
- ILS [1, 11]: 39%
- Cure Rate [2, 12]: 0%
- MST [2, 12]: 45 days
- Cure Rate [2, 13]: 0%
- MST [2, 13]: 47 days
- TGI ([2]; Compound 1 alone 0.7 mg/kg, p<0.001): ~80%
- TGI ([2]; Compound 1 alone 1.4 mg/kg, p<0.001): ~80%
- BWC [2, 14]: 0%
- Mean Tumor Vol [2, 14]: 529 ± 64 mm^3
- TGI [2, 14]: 79%
- BWC [2, 15]: 7%
- Mean Tumor Vol [2, 15]: 465 ± 133 mm^3
- TGI [2, 15]: 82%
- RTV at day 11 [3, 16]: 4.061 ± 0.33
- Tumor Size at day 11 [3, 16]: 602 ± 72 mm^3
- Tumor volume ([3]; Group 4, 1.4 mg/kg SC 5 d ON 2 d OFF x3 cycles, day 0): 155 ± 19 mm^3
- Tumor volume ([3]; Group 4, 1.4 mg/kg SC 5 d ON 2 d OFF x3 cycles, day 4): 227 ± 39 mm^3
- Tumor volume ([3]; Group 4, 1.4 mg/kg SC 5 d ON 2 d OFF x3 cycles, day 7): 294 ± 53 mm^3
- T/C [3, 17]: 52.25%
- TGI [3, 17]: 53.92%
- Tumor volume [3, 17]: 602 ± 72 mm^3
- Tumor volume ([3]; Group 4, 1.4 mg/kg SC 5 d ON 2 d OFF x3 cycles, day 14): 964 ± 176 mm^3
- RTV at day 11 [3, 18]: 3.70 ± 0.45
- Tumor Size at day 11 [3, 18]: 571 ± 82 mm^3
- Tumor volume ([3]; Group 5, 3.3 mg/kg IV tiw x3 cycles, day 0): 156 ± 19 mm^3
- Tumor volume ([3]; Group 5, 3.3 mg/kg IV tiw x3 cycles, day 4): 188 ± 23 mm^3
- Tumor volume ([3]; Group 5, 3.3 mg/kg IV tiw x3 cycles, day 7): 378 ± 60 mm^3
- T/C [3, 19]: 48.17%
- TGI [3, 19]: 57.23%
- Tumor volume [3, 19]: 571 ± 82 mm^3
- Tumor volume ([3]; Group 5, 3.3 mg/kg IV tiw x3 cycles, day 14): 861 ± 134 mm^3
- Tumor volume ([3]; Group 5, 3.3 mg/kg IV tiw x3 cycles, day 18): 1354 ± 204 mm^3
